These compounds were tested against T1, TNF-α (Homo sapiens, UniProt P01375) (assay: TNF-α Induced HEK Blue Cellular Assay (secreted alkaline phosphatase expression, QUANTI-Blue)). Conditions: HEK Blue TNFα reporter cells; TNF-α 100 μg/ml; 24 hrs at 37° C.; inhibition of secreted alkaline phosphatase; read-out: IC50 value.
T1 construct: purchased R&D 210-TA-020/CF
Format: cell-based
Outline: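 Compound was serially diluted from […] to 0.5 nM final, then incubated with 10,000 HEK Blue TNFα reporter cells per well and […] TNF-α for 24 h at 37° C. SEAP output was read by QUANTI-Blue absorbance at 620 nm. Inhibition was background-corrected against DMSO controls with and without stimulation, and IC50 was fitted with a 4-parameter logistic equation.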

T1 sequence (P01375 77-233 limits assumed): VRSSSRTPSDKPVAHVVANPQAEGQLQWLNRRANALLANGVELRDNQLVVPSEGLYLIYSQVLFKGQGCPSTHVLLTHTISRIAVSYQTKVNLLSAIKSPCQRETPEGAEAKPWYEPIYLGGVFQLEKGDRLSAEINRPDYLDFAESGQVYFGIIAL

Row | IC50 | SMILES
1 | < 100 nM | [2H]C([2H])([2H])N1C(=O)c2cccc(OC(F)F)c2[C@H]2C[C@@H]1c1nc3ccc(C#CCCN4CCN(C)CC4)cc3n12 [Example 134, (7R,14R)-1-(difluoromethoxy)-6-(methyl-d3)-11-(4-(4-methylpiperazin-1-yl)but-1-yn-1-yl)-6,7-dihydro-7,14-methanobenzo[f]benzo[4,5]imidazo[1,2-a][1,4]diazocin-5(14H)-one]
2 | < 100 nM | [2H]C([2H])([2H])N1C(=O)c2cccc(OC(F)F)c2[C@H]2C[C@@H]1c1nc3ccc(C#CCCN4CCCC4)cc3n12 [Example 136, (7R,14R)-1-(difluoromethoxy)-6-(methyl-d3)-11-(4-(pyrrolidin-1-yl)but-1-yn-1-yl)-6,7-dihydro-7,14-methanobenzo[f]benzo[4,5]imidazo[1,2-a][1,4]diazocin-5(14H)-one]
3 | 10000 to 30000 nM | [2H]C([2H])([2H])N1C(=O)c2cccc(OC(F)F)c2[C@H]2C[C@@H]1c1nc3ccc(C#CCC(=O)OC)cc3n12 [Example 138, methyl 4-((7R,14R)-1-(difluoromethoxy)-6-(methyl-d3)-5-oxo-5,6,7,14-tetrahydro-7,14-methanobenzo[f]benzo[4,5]imidazo[1,2-a][1,4]diazocin-11-yl)but-3-ynoate]
4 | < 100 nM | [2H]C([2H])([2H])N1C(=O)c2cccc(OC(F)F)c2[C@H]2C[C@@H]1c1nc3ccc(C#CC4CC(C#N)C4)cc3n12 (stereo partly drawn) [Example 141, 3-(((7R,14R)-1-(difluoromethoxy)-6-(methyl-d3)-5-oxo-5,6,7,14-tetrahydro-7,14-methanobenzo[f]benzo[4,5]imidazo[1,2-a][1,4]diazocin-11-yl)ethynyl)cyclobutane-1-carbonitrile]
5 | < 100 nM | [2H]C([2H])([2H])N1C(=O)c2cccc(OC(F)F)c2[C@H]2C[C@@H]1c1nc3ccc(C#CCCN4CC(C)(O)C4)cc3n12 [Example 143, (7R,14R)-1-(difluoromethoxy)-11-(4-(3-hydroxy-3-methylazetidin-1-yl)but-1-yn-1-yl)-6-(methyl-d3)-6,7-dihydro-7,14-methanobenzo[f]benzo[4,5]imidazo[1,2-a][1,4]diazocin-5(14H)-one]
6 | 100 to 1000 nM | [2H]C([2H])([2H])N1C(=O)c2cccc(OC(F)F)c2[C@H]2C[C@@H]1c1nc3ccc(C#CCO)cc3n12 [Example 144, (7R,14R)-1-(difluoromethoxy)-11-(3-hydroxyprop-1-yn-1-yl)-6-(methyl-d3)-6,7-dihydro-7,14-methanobenzo[f]benzo[4,5]imidazo[1,2-a][1,4]diazocin-5(14H)-one]
7 | < 100 nM | [2H]C([2H])([2H])N1C(=O)c2cccc(OC(F)F)c2[C@H]2C[C@@H]1c1nc3ccc(C#C[C@@H](C)COC)cc3n12 [Example 147, (7R,14R)-1-(difluoromethoxy)-11-((R)-4-methoxy-3-methylbut-1-yn-1-yl)-6-(methyl-d3)-6,7-dihydro-7,14-methanobenzo[f]benzo[4,5]imidazo[1,2-a][1,4]diazocin-5(14H)-one]
8 | 100 to 1000 nM | [2H]C([2H])([2H])N1C(=O)c2cccc(OC(F)F)c2[C@H]2C[C@@H]1c1nc3ccc(C#CCCNC)cc3n12 [Example 151, (7R,14R)-1-(difluoromethoxy)-6-(methyl-d3)-11-(4-(methylamino)but-1-yn-1-yl)-6,7-dihydro-7,14-methanobenzo[f]benzo[4,5]imidazo[1,2-a][1,4]diazocin-5(14H)-one]
9 | 100 to 1000 nM | [2H]C([2H])([2H])N1C(=O)c2cccc(OC(F)F)c2[C@H]2C[C@@H]1c1nc3ccc(C#CCCNCC)cc3n12 [Example 152, (7R,14R)-1-(difluoromethoxy)-11-(4-(ethylamino)but-1-yn-1-yl)-6-(methyl-d3)-6,7-dihydro-7,14-methanobenzo[f]benzo[4,5]imidazo[1,2-a][1,4]diazocin-5(14H)-one]
10 | < 100 nM | [2H]C([2H])([2H])N1C(=O)c2cccc(OC(F)F)c2[C@H]2C[C@@H]1c1nc3ccc(C#CC4(C)CN(C)C4)cc3n12 [Example 155, (7R,14R)-1-(difluoromethoxy)-11-((1,3-dimethylazetidin-3-yl)ethynyl)-6-(methyl-d3)-6,7-dihydro-7,14-methanobenzo[f]benzo[4,5]imidazo[1,2-a][1,4]diazocin-5(14H)-one]
11 | 100 to 1000 nM | [2H]C([2H])([2H])N1C(=O)c2cccc(OC(F)F)c2[C@H]2C[C@@H]1c1nc3ccc(C#CC4(C)CN(C(=O)C(C)(C)O)C4)cc3n12 [Example 156, (7R,14R)-1-(difluoromethoxy)-11-((1-(2-hydroxy-2-methylpropanoyl)-3-methylazetidin-3-yl)ethynyl)-6-(methyl-d3)-6,7-dihydro-7,14-methanobenzo[f]benzo[4,5]imidazo[1,2-a][1,4]diazocin-5(14H)-one]
12 | < 100 nM | [2H]C([2H])([2H])N1C(=O)c2cccc(OC(F)F)c2[C@H]2C[C@@H]1c1nc3ccc(C#CC4(C)CNC4)cc3n12 [Example 158, (7R,14R)-1-(difluoromethoxy)-6-(methyl-d3)-11-((3-methylazetidin-3-yl)ethynyl)-6,7-dihydro-7,14-methanobenzo[f]benzo[4,5]imidazo[1,2-a][1,4]diazocin-5(14H)-one]

Further lines, the compound ahead of its results:

Row | SMILES | IC50
13 | [2H]C([2H])([2H])N1C(=O)c2cccc(OC(F)F)c2[C@H]2C[C@@H]1c1nc3ccc(C#CCOC(F)F)cc3n12 [Example 131, (7R,14R)-1-(difluoromethoxy)-11-(3-(difluoromethoxy)prop-1-yn-1-yl)-6-(methyl-d3)-6,7-dihydro-7,14-methanobenzo[f]benzo[4,5]imidazo[1,2-a][1,4]diazocin-5(14H)-one] | < 100 nM
14 | [2H]C([2H])([2H])N1C(=O)c2cccc(OC(F)F)c2[C@H]2C[C@@H]1c1nc3ccc(C#CCCC(F)F)cc3n12 [Example 132, (7R,14R)-1-(difluoromethoxy)-11-(5,5-difluoropent-1-yn-1-yl)-6-(methyl-d3)-6,7-dihydro-7,14-methanobenzo[f]benzo[4,5]imidazo[1,2-a][1,4]diazocin-5(14H)-one] | < 100 nM
15 | [2H]C([2H])([2H])N1C(=O)c2cccc(OC(F)F)c2[C@H]2C[C@@H]1c1nc3ccc(C#CCCCN4CCN(C)CC4)cc3n12 [Example 133, (7R,14R)-1-(difluoromethoxy)-6-(methyl-d3)-11-(5-(4-methylpiperazin-1-yl)pent-1-yn-1-yl)-6,7-dihydro-7,14-methanobenzo[f]benzo[4,5]imidazo[1,2-a][1,4]diazocin-5(14H)-one] | 100 to 1000 nM
16 | [2H]C([2H])([2H])N1C(=O)c2cccc(OC(F)F)c2[C@H]2C[C@@H]1c1nc3ccc(C#C[C@H](C)COC)cc3n12 [Example 142, (7R,14R)-1-(difluoromethoxy)-11-((S)-4-methoxy-3-methylbut-1-yn-1-yl)-6-(methyl-d3)-6,7-dihydro-7,14-methanobenzo[f]benzo[4,5]imidazo[1,2-a][1,4]diazocin-5(14H)-one] | < 100 nM
17 | [2H]C([2H])([2H])N1C(=O)c2cccc(OC(F)F)c2[C@H]2C[C@@H]1c1nc3c(F)cc(C#CC4(C)COC4)cc3n12 [Example 145, (7R,14R)-1-(difluoromethoxy)-9-fluoro-6-(methyl-d3)-11-((3-methyloxetan-3-yl)ethynyl)-6,7-dihydro-7,14-methanobenzo[f]benzo[4,5]imidazo[1,2-a][1,4]diazocin-5(14H)-one] | < 100 nM
18 | [2H]C([2H])([2H])N1C(=O)c2cccc(OC(F)F)c2[C@H]2C[C@@H]1c1nc3ccc(C#CC4(C)COC4)c(F)c3n12 [Example 146, (7R,14R)-1-(difluoromethoxy)-12-fluoro-6-(methyl-d3)-11-((3-methyloxetan-3-yl)ethynyl)-6,7-dihydro-7,14-methanobenzo[f]benzo[4,5]imidazo[1,2-a][1,4]diazocin-5(14H)-one] | 100 to 1000 nM
19 | [2H]C([2H])([2H])N1C(=O)c2cccc(OC(F)F)c2[C@H]2C[C@@H]1c1nc3ccc(C#CC4CC(F)(F)C4)cc3n12 [Example 150, (7R,14R)-11-((3,3-difluorocyclobutyl)ethynyl)-1-(difluoromethoxy)-6-(methyl-d3)-6,7-dihydro-7,14-methanobenzo[f]benzo[4,5]imidazo[1,2-a][1,4]diazocin-5(14H)-one] | < 100 nM
20 | [2H]C([2H])([2H])N1C(=O)c2cccc(OC(F)F)c2[C@H]2C[C@@H]1c1nc3ccc(C#CCCCNC)cc3n12 [Example 153, (7R,14R)-1-(difluoromethoxy)-6-(methyl-d3)-11-(5-(methylamino)pent-1-yn-1-yl)-6,7-dihydro-7,14-methanobenzo[f]benzo[4,5]imidazo[1,2-a][1,4]diazocin-5(14H)-one] | 100 to 1000 nM
21 | [2H]C([2H])([2H])N1C(=O)c2cccc(OC(F)F)c2[C@H]2C[C@@H]1c1nc3ccc(C#CCCN4CC(C)(C#N)C4)cc3n12 [Example 154, 1-(4-((7R,14R)-1-(difluoromethoxy)-6-(methyl-d3)-5-oxo-5,6,7,14-tetrahydro-7,14-methanobenzo[f]benzo[4,5]imidazo[1,2-a][1,4]diazocin-11-yl)but-3-yn-1-yl)-3-methylazetidine-3-carbonitrile] | < 100 nM
22 | [2H]C([2H])([2H])N1C(=O)c2cccc(OC(F)F)c2[C@H]2C[C@@H]1c1nc3ccc(C#CC4(C)CN(C(=O)C(C)(C)C#N)C4)cc3n12 [Example 157, 3-(3-(((7R,14R)-1-(difluoromethoxy)-6-(methyl-d3)-5-oxo-5,6,7,14-tetrahydro-7,14-methanobenzo[f]benzo[4,5]imidazo[1,2-a][1,4]diazocin-11-yl)ethynyl)-3-methylazetidin-1-yl)-2,2-dimethyl-3-oxopropanenitrile] | 100 to 1000 nM

Same assay, conditions: IC50 value, HEK Blue TNFα reporter cells; TNF-α 100 μg/ml; 24 hrs at 37° C.; inhibition of secreted alkaline phosphatase

Row | IC50 | SMILES
23 | < 100 nM | [2H]C([2H])([2H])N1C(=O)c2cccc(OC(F)F)c2[C@H]2C[C@@H]1c1nc3ccc(C#CCCN4CCC4)cc3n12 [Example 135, (7R,14R)-11-(4-(azetidin-1-yl)but-1-yn-1-yl)-1-(difluoromethoxy)-6-(methyl-d3)-6,7-dihydro-7,14-methanobenzo[f]benzo[4,5]imidazo[1,2-a][1,4]diazocin-5(14H)-one]

Source: US20260365682A1, “MODULATORS OF TNF-ALPHA ACTIVITY” (Forward Therapeutics, Inc., priority 2022, published 2026)
